Assay results published in ChEMBL document CHEMBL1125402, “Conformational effects on the activity of drugs. 13. A revision of previously proposed models for the activation of alpha- and beta-adrenergic receptors” (J Med Chem, 1992).

What was measured:
[1] = target: T1, Adrenergic receptor alpha-2 (Homo sapiens) (UniProt P08913+P18825+P18089); experiment: Compound was evaluated for alpha adrenoceptor agonistic activity towards alpha-2 adrenergic receptor of isolated guinea pig ileum; assay type: functional, tissue-based; conditions: Cavia porcellus, target entry is the homologue from another species
[2] = target: T2, Adrenergic receptor alpha-1 (Rattus norvegicus, UniProt P15823+P23944+P43140); experiment: Binding affinity towards Alpha-1 adrenergic receptor of rat brain
T2 sequence (P15823 whole entry): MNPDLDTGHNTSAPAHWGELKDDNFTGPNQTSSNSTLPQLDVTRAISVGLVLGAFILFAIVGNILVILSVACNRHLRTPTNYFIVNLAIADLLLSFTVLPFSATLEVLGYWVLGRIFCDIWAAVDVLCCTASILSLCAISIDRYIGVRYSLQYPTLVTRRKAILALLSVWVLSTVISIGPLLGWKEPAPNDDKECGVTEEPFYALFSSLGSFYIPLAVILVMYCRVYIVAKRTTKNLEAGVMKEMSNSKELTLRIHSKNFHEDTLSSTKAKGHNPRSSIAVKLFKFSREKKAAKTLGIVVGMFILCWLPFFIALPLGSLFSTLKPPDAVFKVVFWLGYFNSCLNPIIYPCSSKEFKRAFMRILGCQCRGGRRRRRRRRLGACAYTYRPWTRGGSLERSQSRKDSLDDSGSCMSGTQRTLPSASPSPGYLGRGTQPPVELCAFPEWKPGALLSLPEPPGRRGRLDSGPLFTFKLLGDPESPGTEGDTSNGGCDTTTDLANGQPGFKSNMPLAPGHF
T2 sequence (P23944 whole entry): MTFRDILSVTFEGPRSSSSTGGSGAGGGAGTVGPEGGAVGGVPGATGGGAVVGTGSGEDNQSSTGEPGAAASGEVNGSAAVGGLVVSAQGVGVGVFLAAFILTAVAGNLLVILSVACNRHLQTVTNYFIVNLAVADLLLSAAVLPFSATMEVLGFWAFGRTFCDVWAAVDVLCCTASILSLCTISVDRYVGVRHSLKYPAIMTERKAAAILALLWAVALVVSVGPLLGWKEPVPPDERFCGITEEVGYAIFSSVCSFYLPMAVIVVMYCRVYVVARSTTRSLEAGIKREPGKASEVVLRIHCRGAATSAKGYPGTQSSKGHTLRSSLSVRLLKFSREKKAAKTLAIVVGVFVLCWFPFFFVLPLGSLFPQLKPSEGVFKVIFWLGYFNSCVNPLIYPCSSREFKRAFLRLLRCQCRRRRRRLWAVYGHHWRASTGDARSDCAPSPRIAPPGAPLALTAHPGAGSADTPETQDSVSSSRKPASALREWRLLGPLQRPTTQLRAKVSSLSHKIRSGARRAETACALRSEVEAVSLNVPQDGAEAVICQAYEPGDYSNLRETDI
T2 sequence (P43140 whole entry): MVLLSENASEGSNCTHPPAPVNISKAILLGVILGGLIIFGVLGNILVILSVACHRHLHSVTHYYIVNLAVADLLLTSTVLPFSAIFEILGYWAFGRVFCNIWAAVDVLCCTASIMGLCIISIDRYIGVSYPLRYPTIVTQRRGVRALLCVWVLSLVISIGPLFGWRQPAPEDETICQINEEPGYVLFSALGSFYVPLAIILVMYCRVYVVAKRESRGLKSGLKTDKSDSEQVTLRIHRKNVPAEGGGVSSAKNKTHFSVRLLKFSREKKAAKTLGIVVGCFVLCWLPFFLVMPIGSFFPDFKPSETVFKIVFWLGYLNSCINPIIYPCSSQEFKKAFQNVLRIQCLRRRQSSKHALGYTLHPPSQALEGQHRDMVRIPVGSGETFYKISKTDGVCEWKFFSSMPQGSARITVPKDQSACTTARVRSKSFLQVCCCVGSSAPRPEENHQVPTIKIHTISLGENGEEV

[3] = target: Beta-1 adrenergic receptor (Cavia porcellus) (UniProt B0FL73); experiment: Intrinsic activity was expressed as the ratio between maximal response elicited by compound and that elicited by full agonist ISO towards beta 1 receptor of isolated guinea pig atria; assay type: functional
Chain of Beta-1 adrenergic receptor (Cavia porcellus) (B0FL73 1-467): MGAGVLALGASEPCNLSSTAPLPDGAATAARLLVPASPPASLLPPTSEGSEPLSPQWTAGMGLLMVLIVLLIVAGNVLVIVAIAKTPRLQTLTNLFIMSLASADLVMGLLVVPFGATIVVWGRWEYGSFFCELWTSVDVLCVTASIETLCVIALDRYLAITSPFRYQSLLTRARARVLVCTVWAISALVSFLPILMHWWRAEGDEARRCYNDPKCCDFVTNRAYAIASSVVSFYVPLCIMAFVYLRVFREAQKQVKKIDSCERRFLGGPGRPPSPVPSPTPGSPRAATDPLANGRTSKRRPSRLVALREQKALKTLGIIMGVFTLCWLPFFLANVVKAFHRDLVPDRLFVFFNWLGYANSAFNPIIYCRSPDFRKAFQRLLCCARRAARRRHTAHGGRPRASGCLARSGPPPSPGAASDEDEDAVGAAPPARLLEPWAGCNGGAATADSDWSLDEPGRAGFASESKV

[4] = target: T1, Adrenergic receptor alpha-2 (Homo sapiens); experiment: Intrinsic activity was expressed as the ratio between maximal response elicited by compound and that elicited by full agonist NE towards alpha-2 adrenergic receptor of isolated guinea pig ileum; assay type: functional, tissue-based; conditions: Cavia porcellus
[5] = target: T3, Beta-2 adrenergic receptor (Bos taurus, UniProt Q28044); experiment: Compound was evaluated for beta adrenergic binding affinity towards Beta-2 adrenergic receptor of bovine lung
T3 sequence (Q28044 whole entry): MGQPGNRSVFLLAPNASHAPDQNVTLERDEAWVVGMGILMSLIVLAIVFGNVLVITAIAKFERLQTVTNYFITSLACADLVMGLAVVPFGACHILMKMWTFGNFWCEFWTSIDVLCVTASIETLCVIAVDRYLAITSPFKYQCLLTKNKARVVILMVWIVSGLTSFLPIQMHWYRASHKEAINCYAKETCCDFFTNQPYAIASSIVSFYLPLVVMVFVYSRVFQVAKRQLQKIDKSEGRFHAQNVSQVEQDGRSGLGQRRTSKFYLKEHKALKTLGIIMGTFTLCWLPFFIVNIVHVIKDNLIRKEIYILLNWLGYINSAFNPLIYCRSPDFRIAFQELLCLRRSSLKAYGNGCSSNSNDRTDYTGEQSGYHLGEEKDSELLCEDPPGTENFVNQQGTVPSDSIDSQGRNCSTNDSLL

[6] = target: Beta-2 adrenergic receptor (Cavia porcellus) (UniProt Q8K4Z4); experiment: Compound was evaluated for beta adrenoceptor agonistic activity towards Beta-2 adrenergic receptor of isolated guinea pig tracheal strip; assay type: functional
Chain of Beta-2 adrenergic receptor (Cavia porcellus) (Q8K4Z4 whole entry, looked up): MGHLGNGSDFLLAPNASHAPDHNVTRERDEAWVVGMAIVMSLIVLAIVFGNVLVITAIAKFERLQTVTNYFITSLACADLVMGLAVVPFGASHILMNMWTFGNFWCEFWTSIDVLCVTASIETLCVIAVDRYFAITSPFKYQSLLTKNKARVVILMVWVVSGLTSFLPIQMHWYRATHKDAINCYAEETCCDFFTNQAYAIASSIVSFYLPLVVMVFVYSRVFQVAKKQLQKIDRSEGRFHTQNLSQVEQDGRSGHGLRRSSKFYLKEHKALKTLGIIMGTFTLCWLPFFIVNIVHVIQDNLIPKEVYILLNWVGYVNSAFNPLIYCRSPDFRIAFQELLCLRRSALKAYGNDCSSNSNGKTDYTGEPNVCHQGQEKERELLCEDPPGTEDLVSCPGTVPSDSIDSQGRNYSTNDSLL

[7] = target: T4, Beta-1 adrenergic receptor (Rattus norvegicus, UniProt P18090)
T4 sequence (P18090 whole entry): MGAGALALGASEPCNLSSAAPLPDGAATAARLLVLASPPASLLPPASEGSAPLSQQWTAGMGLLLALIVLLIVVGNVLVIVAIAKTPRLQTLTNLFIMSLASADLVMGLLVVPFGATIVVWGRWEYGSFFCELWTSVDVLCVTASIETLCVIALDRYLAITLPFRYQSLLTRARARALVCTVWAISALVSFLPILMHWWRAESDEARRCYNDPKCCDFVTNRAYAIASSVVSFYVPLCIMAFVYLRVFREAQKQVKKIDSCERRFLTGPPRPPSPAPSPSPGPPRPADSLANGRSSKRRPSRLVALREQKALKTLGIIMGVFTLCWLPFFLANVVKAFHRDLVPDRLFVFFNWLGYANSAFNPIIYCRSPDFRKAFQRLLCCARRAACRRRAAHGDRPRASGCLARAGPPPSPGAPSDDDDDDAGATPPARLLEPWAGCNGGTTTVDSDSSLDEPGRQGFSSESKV
Description: Compound was evaluated for beta adrenergic binding affinity towards Beta-1 adrenergic receptor of rat brain

[8] = target: Beta-1 adrenergic receptor (Cavia porcellus) (UniProt B0FL73); experiment: Compound was evaluated for beta adrenoceptor agonistic activity towards Beta-1 adrenergic receptor of isolated guinea pig atria; assay type: functional
[9] = target: T5, Adrenergic receptor alpha-2 (Rattus norvegicus, UniProt P22086+P19328+P22909); experiment: Binding affinity towards Alpha-2 adrenergic receptor of rat brain
T5 sequence (P22086 whole entry): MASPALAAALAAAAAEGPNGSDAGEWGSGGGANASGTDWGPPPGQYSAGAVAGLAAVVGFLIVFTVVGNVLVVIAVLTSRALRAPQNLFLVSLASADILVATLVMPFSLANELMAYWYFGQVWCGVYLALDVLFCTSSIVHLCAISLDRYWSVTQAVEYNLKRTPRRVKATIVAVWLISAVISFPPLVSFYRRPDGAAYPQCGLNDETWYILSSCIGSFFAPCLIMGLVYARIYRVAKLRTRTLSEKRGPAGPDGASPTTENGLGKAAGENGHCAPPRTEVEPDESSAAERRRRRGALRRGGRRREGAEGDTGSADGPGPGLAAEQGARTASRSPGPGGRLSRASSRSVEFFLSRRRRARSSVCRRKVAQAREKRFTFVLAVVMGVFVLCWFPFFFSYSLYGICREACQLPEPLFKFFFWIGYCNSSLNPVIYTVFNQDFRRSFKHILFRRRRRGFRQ
T5 sequence (P19328 whole entry): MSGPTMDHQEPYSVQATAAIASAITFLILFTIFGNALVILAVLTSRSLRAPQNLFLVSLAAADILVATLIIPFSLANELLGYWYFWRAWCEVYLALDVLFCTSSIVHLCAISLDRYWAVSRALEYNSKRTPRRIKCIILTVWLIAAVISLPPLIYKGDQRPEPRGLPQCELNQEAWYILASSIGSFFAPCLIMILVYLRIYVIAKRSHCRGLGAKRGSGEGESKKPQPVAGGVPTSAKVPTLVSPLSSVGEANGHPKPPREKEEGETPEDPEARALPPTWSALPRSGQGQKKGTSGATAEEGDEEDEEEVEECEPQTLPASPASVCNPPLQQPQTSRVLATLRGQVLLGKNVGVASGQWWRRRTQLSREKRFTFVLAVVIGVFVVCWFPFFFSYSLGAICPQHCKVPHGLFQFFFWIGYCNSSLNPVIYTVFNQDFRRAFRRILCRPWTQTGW
T5 sequence (P22909 whole entry): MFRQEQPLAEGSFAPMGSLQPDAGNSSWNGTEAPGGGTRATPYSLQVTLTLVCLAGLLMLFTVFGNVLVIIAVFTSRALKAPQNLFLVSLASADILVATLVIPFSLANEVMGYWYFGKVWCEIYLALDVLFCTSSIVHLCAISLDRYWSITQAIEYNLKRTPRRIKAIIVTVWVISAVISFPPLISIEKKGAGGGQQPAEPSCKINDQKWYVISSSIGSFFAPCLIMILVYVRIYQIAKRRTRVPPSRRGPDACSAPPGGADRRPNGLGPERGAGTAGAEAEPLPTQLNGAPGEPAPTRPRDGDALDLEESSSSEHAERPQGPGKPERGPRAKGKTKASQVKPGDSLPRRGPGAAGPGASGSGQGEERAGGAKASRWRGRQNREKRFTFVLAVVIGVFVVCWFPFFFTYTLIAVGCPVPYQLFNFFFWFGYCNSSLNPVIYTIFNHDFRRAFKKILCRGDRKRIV

[10] = target: T5, Adrenergic receptor alpha-2; experiment: Compound was evaluated for alpha adrenergic binding affinity towards Alpha-2 adrenergic receptor of rat brain
[11] = target: T2, Adrenergic receptor alpha-1; experiment: Compound was evaluated for alpha adrenergic binding affinity towards alpha-1 receptor of rat brain
[12] = target: T6, Adrenergic receptor alpha-1 (Rattus norvegicus) (UniProt P15823+P23944+P43140); experiment: Compound was evaluated for alpha adrenoceptor agonistic activity towards Alpha-1 adrenergic receptor of isolated rat vas deferens; assay type: functional, tissue-based
[13] = target: Beta-1 adrenergic receptor (Cavia porcellus) (UniProt B0FL73); experiment: Intrinsic activity was expressed as the ratio between maximal response elicited by compound and that elicited by full agonist ISO towards beta-1 receptor of isolated guinea pig atria; assay type: functional
[14] = target: T6, Adrenergic receptor alpha-1 (Rattus norvegicus); experiment: Intrinsic activity was expressed as the ratio between maximal response elicited by compound and that elicited by full agonist NE towards Alpha-1 adrenergic receptor of isolated rat vas deferens; assay type: functional, tissue-based
[15] = target: Beta-2 adrenergic receptor (Cavia porcellus) (UniProt Q8K4Z4)
Description: Compound was evaluated for beta adrenoceptor agonistic activity towards beta 2 receptor of isolated guinea pig tracheal strip

[16] = target: Beta-1 adrenergic receptor (Cavia porcellus) (UniProt B0FL73); experiment: Compound was evaluated for beta adrenoceptor agonistic activity towards beta 1 receptor of isolated guinea pig atria; assay type: functional
[17] = target: T6, Adrenergic receptor alpha-1 (Rattus norvegicus); experiment: Compound was evaluated for alpha adrenoceptor agonistic activity towards Alpha-1 adrenergic receptor of isolated rat vas deferens (exp 2); assay type: functional, tissue-based
[18] = target: T4, Beta-1 adrenergic receptor; experiment: Compound was evaluated for beta adrenergic binding affinity towards beta-1 receptor of rat brain
[19] = target: T6, Adrenergic receptor alpha-1 (Rattus norvegicus); experiment: Compound was evaluated for alpha adrenoceptor agonistic activity towards alpha 1 receptor of isolated rat vas deferens (exp 1); assay type: functional, tissue-based
[20] = target: T3, Beta-2 adrenergic receptor; experiment: Compound was evaluated for beta adrenergic binding affinity towards beta-2 receptor of bovine lung
[21] = target: T1, Adrenergic receptor alpha-2 (Homo sapiens); conditions: Cavia porcellus; Ileum
Description: Intrinsic activity was expressed as the ratio between maximal response elicited by compound and that elicited by full agonist NE towards Alpha-2 adrenergic receptor of isolated guinea pig ileum

Structure (SMILES)	pD2 [1]	Ki [2] [µM]	Intrinsic activity [3]	Intrinsic activity [4]	Ki [5] [µM]	pD2 [6]	Ki [7] [µM]	pD2 [8]	Ki [9] [µM]	Ki [10] [µM]	further results
CC(C)N1CCCC(O)(c2ccc(O)c(O)c2)C1 (configuration not stated)	4.57	36	0.16	0.89	92	4.64	60	3.5	4.8	–	–
CC(C)NCC(O)c1ccc(O)c(O)c1 (configuration not stated) [ISOPROTERENOL]	–	–	–	–	–	–	–	–	–	21	Ki [11]: 35.5 µM
N[C@@H]1CCc2cc(O)c(O)cc2[C@H]1O	6.63	0.3	–	1.42	71	5.36	> 100	4.57	0.09	–	pD2 [12]: 4.6; Intrinsic activity [13]: 0.81; Intrinsic activity [14]: 0.5
Oc1ccc(C2CNCCO2)cc1O (configuration not stated)	–	7.4	0.91	–	–	–	–	–	–	0.026	pD2 [15]: 4.76; pD2 [16]: 5.31; Intrinsic activity [17]: 0.91; Ki [18]: 15 µM; pD2 [19]: 4.88; Ki [20]: 9.2 µM; pD2 [21]: 7.34
